A short description of the series: Human HepG2 cell viability assay in 384 well format. It is filed as toxicity, cell-based. Also noted: dose 125 nL, time 70.5 hour; concentration not given beside the values. As to conditions: HepG2 cells, read-out: Inhibition.
For `COCCN1C(=O)CC[C@]12CC[C@@H](NC(=O)c1cc(C)on1)CC2`, the cytotoxicity at 70.5 h is -5.63%. To `CN(C)C(=O)N1CCC(C2C(=O)Nc3ccccc32)CC1` (configuration not stated) belongs -10.4%.

Turning to `Cc1ccc(CN2CCc3c(C(=O)N(C)C)n[nH]c3C2)o1`, the cytotoxicity at 70.5 h was -8.34%. The result for `CCN(C)C1COC2(CCN(C(=O)c3ccc4[nH]ccc4c3)CC2)C1` (configuration not stated) reads -11%.

Regarding `O=C(Cc1ccco1)N1CCC2(CCOCC2COCC2CC2)CC1` (configuration not stated), the cytotoxicity at 70.5 h was -4.14%.

On to `CN(C)C(=O)N1CC(=O)NCC12CCN(C(=O)c1ccco1)C2` (configuration not stated), for which the cytotoxicity at 70.5 h is -7.28%.

For the compound `CS(=O)(=O)NCc1cncc2c1CCN(C(=O)c1ccccn1)C2`, the cytotoxicity at 70.5 h is -12.5%. For the compound `CC(C)NC(=O)C1Cc2nc(-c3ccsc3)sc2N1CC1CC1` (configuration not stated), the cytotoxicity at 70.5 h was -6.43%. Turning to `Cc1cccc(CN2CCC3(CCCN(Cc4cnn(C)c4)C3)C2=O)n1` (configuration not stated), the cytotoxicity at 70.5 h is -18.3%. `COCC1CN(C(=O)c2ccccn2)Cc2nccn2C1` (configuration not stated): the cytotoxicity at 70.5 h is -11.1%.

As for `Cn1cc(CN2CCCC3(CCN(Cc4ccncc4)C3=O)C2)cn1` (configuration not stated), the cytotoxicity at 70.5 h is -10.1%. The result for `CCCNC(=O)c1cc2c(s1)CCN2C(=O)c1ccccc1` reads 14.2%; that for `Cc1cncc(C(=O)N2CCc3ncc(Cn4cccn4)n3CC2)c1`, 22.9%.

On to `CCOC(=O)N1CCC2(CCNC2)C1` (configuration not stated), for which the cytotoxicity at 70.5 h is -5.56%. The result for `COc1ccc(C[C@H]2CN(C3CCOCC3)CC[C@@H]2OCC2CC2)cc1` reads -3.98%; that for `CN(C[C@@H]1CCC[C@@H]2CN(c3ncccn3)C[C@@H]21)C1CC1`, -1.63%. Consider `CC(C)N1CCC2(CCCN(c3nccc(C(F)(F)F)n3)C2)CC1`, for which the cytotoxicity at 70.5 h is -2.7%. For `CN(C)C(=O)c1n[nH]c2c1CN(Cc1ccccn1)CC2`, the cytotoxicity at 70.5 h is -3.26%. The result for `c1cc(CN2CCC3(CCOCC3COCC3CC3)CC2)co1` (configuration not stated) reads -4.78%. To `CCN1CCc2[nH]nc(C(=O)N3CCCC3C)c2C1` (configuration not stated) belongs 4.99%; to `CCN1CC(=O)NCC12CCN(C(=O)c1ccco1)C2` (configuration not stated), -3.25%.

Regarding `Cc1ccc(C(=O)N2C[C@@H]3CCN(C(C)C)C[C@@H]3C2)cn1`, the cytotoxicity at 70.5 h came to 0.492%. The result for `Fc1ccc(CN2CCO[C@H]3[C@H](OCC4CCCC4)CC[C@@H]32)cc1` reads -9.77%; that for `CN(C)CCNC(=O)C1Cc2nc(-c3ccccc3)sc2N1CC1CC1` (configuration not stated), -11%. `CN(C)CCNC(=O)C1Cc2nc(-c3ccsc3)sc2N1CC1CC1` (configuration not stated): the cytotoxicity at 70.5 h is -4.49%.

Regarding `Cc1occc1C(=O)N1C[C@@H]2OCCN(c3ncccn3)[C@@H]2C1`, the cytotoxicity at 70.5 h is -11.6%. `Cn1cc(N2C(=O)CC[C@@H]3[C@H]2CCN3CC2CCOCC2)cn1`: the cytotoxicity at 70.5 h was -14.3%. `CC(=O)N1CCC(c2nc3ccc(-c4ccnn4C)cn3n2)CC1`: the cytotoxicity at 70.5 h is -12.4%. The result for `O=C(c1ccoc1)N1C[C@@H]2OCCN(c3ncccn3)[C@@H]2C1` reads 1.23%; that for `CN1CC(=O)N(c2ccccc2)CC12CCN(C(=O)c1cnccn1)C2` (configuration not stated), 22.8%; that for `O=C(C1CCC1)N1CCO[C@H]2[C@H](OCCCn3cccn3)CC[C@@H]21`, 29%. In the case of `COc1ccc(CN2C[C@H]3CN(Cc4ccncc4)C(=O)[C@H]3C2)cc1`, the cytotoxicity at 70.5 h is -7.43%. As to `COc1ncccc1CN1CCc2[nH]nc(C(=O)N3CCCC3C)c2C1` (configuration not stated), the cytotoxicity at 70.5 h was -3.57%. Consider `COCC1c2c(cnn2CC2CC2)CCN1Cc1ccc(C)o1` (configuration not stated), for which the cytotoxicity at 70.5 h is -8.01%. To `Cn1cc(C2CC(=O)NC23CCN(Cc2ccncc2)CC3)cn1` (configuration not stated) belongs 13.9%; to `CN1CC(=O)N(c2cccnc2)CC12CCN(C(=O)c1cccn1C)C2` (configuration not stated), 1.98%.

`c1cc(CN2CCO[C@H]3[C@H](OCCN4CCCC4)CC[C@@H]32)ccn1`: the cytotoxicity at 70.5 h was -11.7%.

These data come from ChEMBL document CHEMBL3507680, “University of Dundee, Gates Library screen for HepG2 cell viability”.
